Test system: 996289-038-R-J1-PDC spheroid viability
Experiment: Anticancer human tumor 996289-038-R-J1-PDC patient-derived colon adenocarcinoma cell line growth inhibition [PI3K]
Conditions: spheroids with HUVEC and MSC; for viability, T/C: stronger effect = lower value
Procedure, shortened: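 Multi-cell spheroids combine tumor cells with HUVEC and human MSCs, treated with targeted agents alone or with inavolisib, alpelisib, duvelisib or copanlisib. Concentrations fall in half-log steps from at or near clinical Cmax, or from 10 microM where Cmax is unknown; viability read-out.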

[1] = curve of first compound, second compound 0.00316 µM
[2] = curve of first compound, second compound 0.01 µM
[3] = curve of first compound, second compound 0.0316 µM
[4] = curve of first compound, second compound 0.1 µM
[5] = curve of first compound, second compound 0.316 µM
[6] = curve of first compound, second compound 1 µM
[7] = second compound 0.00316 µM, first compound 0.0316 µM
[8] = second compound 0.00316 µM, first compound 0.1 µM
[9] = second compound 0.01 µM, first compound 0.0316 µM
[10] = second compound 0.01 µM, first compound 0.1 µM
[11] = second compound 0.0316 µM, first compound 0.0316 µM
[12] = second compound 0.0316 µM, first compound 0.1 µM
[13] = second compound 0.1 µM, first compound 0.0316 µM
[14] = second compound 0.1 µM, first compound 0.1 µM
[15] = second compound 0.316 µM, first compound 0.0316 µM
[16] = second compound 0.316 µM, first compound 0.1 µM
[17] = second compound 1 µM, first compound 0.0316 µM
[18] = second compound 1 µM, first compound 0.1 µM
[19] = second compound 0.00316 µM, first compound 0.316 µM
[20] = second compound 0.00316 µM, first compound 1 µM
[21] = second compound 0.00316 µM, first compound 3.16 µM
[22] = second compound 0.00316 µM, first compound 10 µM
[23] = second compound 0.01 µM, first compound 0.316 µM
[24] = second compound 0.01 µM, first compound 1 µM
[25] = second compound 0.01 µM, first compound 3.16 µM
[26] = second compound 0.01 µM, first compound 10 µM
[27] = second compound 0.0316 µM, first compound 0.316 µM
[28] = second compound 0.0316 µM, first compound 1 µM
[29] = second compound 0.0316 µM, first compound 3.16 µM
[30] = second compound 0.0316 µM, first compound 10 µM
[31] = second compound 0.1 µM, first compound 0.316 µM
[32] = second compound 0.1 µM, first compound 1 µM
[33] = second compound 0.1 µM, first compound 3.16 µM
[34] = second compound 0.1 µM, first compound 10 µM
[35] = second compound 0.316 µM, first compound 0.316 µM
[36] = second compound 0.316 µM, first compound 1 µM
[37] = second compound 0.316 µM, first compound 3.16 µM
[38] = second compound 0.316 µM, first compound 10 µM
[39] = second compound 1 µM, first compound 0.316 µM
[40] = second compound 1 µM, first compound 1 µM
[41] = second compound 1 µM, first compound 3.16 µM
[42] = second compound 1 µM, first compound 10 µM
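Note: spheroids exposed to compounds for seven days before viability read.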
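Throughout, for viability, T/C: luminescence used as a proxy for viable cell amount; percent viability relative to DMSO vehicle control as 100%.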

CC(C)n1nc(-c2ccc3oc(N)nc3c2)c2c(N)ncnc21 + COc1c(OCCCN2CCOCC2)ccc2c3n(c(=NC(=O)c4cnc(N)nc4)nc12)CCN3
IC50 [1]: 54.7 nM
IC50 [2]: 49.6 nM
IC50 [3]: 31.6 nM
IC50 [4]: 7.59 nM
IC50 [5]: < 0.316 nM
IC50 [6]: < 0.316 nM
viability, T/C (second compound 0.00316 µM, first compound 0.000316 µM): 92%
viability, T/C (second compound 0.00316 µM, first compound 0.001 µM): 81.8%
viability, T/C (second compound 0.00316 µM, first compound 0.00316 µM): 83.2%
viability, T/C (second compound 0.00316 µM, first compound 0.01 µM): 81.4%
viability, T/C [7]: 63.5%
viability, T/C [8]: 34.5%
viability, T/C (second compound 0.01 µM, first compound 0.000316 µM): 92.1%
viability, T/C (second compound 0.01 µM, first compound 0.001 µM): 79.2%
viability, T/C (second compound 0.01 µM, first compound 0.00316 µM): 91.3%
viability, T/C (second compound 0.01 µM, first compound 0.01 µM): 82.8%
viability, T/C [9]: 65.7%
viability, T/C [10]: 25.6%
viability, T/C (second compound 0.0316 µM, first compound 0.000316 µM): 69%
viability, T/C (second compound 0.0316 µM, first compound 0.001 µM): 73.7%
viability, T/C (second compound 0.0316 µM, first compound 0.00316 µM): 77.9%
viability, T/C (second compound 0.0316 µM, first compound 0.01 µM): 68.3%
viability, T/C [11]: 50.2%
viability, T/C [12]: 25.1%
viability, T/C (second compound 0.1 µM, first compound 0.000316 µM): 59.1%
viability, T/C (second compound 0.1 µM, first compound 0.001 µM): 56.6%
viability, T/C (second compound 0.1 µM, first compound 0.00316 µM): 54.1%
viability, T/C (second compound 0.1 µM, first compound 0.01 µM): 48.3%
viability, T/C [13]: 37.8%
viability, T/C [14]: 16.1%
viability, T/C (second compound 0.316 µM, first compound 0.000316 µM): 34.8%
viability, T/C (second compound 0.316 µM, first compound 0.001 µM): 32.9%
viability, T/C (second compound 0.316 µM, first compound 0.00316 µM): 29.9%
viability, T/C (second compound 0.316 µM, first compound 0.01 µM): 35%
viability, T/C [15]: 24.9%
viability, T/C [16]: 10.9%
viability, T/C (second compound 1 µM, first compound 0.000316 µM): 20.9%
viability, T/C (second compound 1 µM, first compound 0.001 µM): 16.9%
viability, T/C (second compound 1 µM, first compound 0.00316 µM): 16.4%
viability, T/C (second compound 1 µM, first compound 0.01 µM): 16.6%
viability, T/C [17]: 14.4%
viability, T/C [18]: 10.3%

CC(Nc1ccc2c(c1)OCCn1cc(N3C(=O)OCC3C(F)F)nc1-2)C(N)=O (centres undefined)
viability, T/C (compound 0.00316 µM): 105% [middle of 8 runs]
viability, T/C (compound 0.0316 µM): 95.4% [middle of 8 runs]
viability, T/C (compound 0.1 µM): 90.3% [middle of 8 runs]
viability, T/C (compound 0.316 µM): 80% [middle of 8 runs]
viability, T/C (compound 1 µM): 67.5% [middle of 8 runs]
IC50 (compound alone, run of 06/12/2023): > 1000 nM

CCN1CCN(Cc2ccc(Nc3ncc(F)c(-c4cc(F)c5nc(C)n(C(C)C)c5c4)n3)nc2)CC1
viability, T/C (compound 0.00316 µM): 99.6% [middle of 4 runs]
viability, T/C (compound 0.01 µM): 91.2% [middle of 4 runs]
viability, T/C (compound 0.0316 µM): 94% [middle of 4 runs]
viability, T/C (compound 0.1 µM): 85.2% [middle of 4 runs]
viability, T/C (compound 0.316 µM): 85.7% [middle of 4 runs]
viability, T/C (compound 1 µM): 85.3% [middle of 4 runs]
IC50 (curve of compound): > 1000 nM

CNC(=O)c1ccc(N2C(=S)N(c3ccc(C#N)c(C(F)(F)F)c3)C(=O)C2(C)C)cc1F + COc1c(OCCCN2CCOCC2)ccc2c3n(c(=NC(=O)c4cnc(N)nc4)nc12)CCN3
IC50 [1]: > 10000 nM
IC50 [2]: > 10000 nM
IC50 [3]: > 10000 nM
IC50 [4]: > 10000 nM
IC50 [5]: < 31.6 nM
IC50 [6]: < 31.6 nM
viability, T/C [7]: 103%
viability, T/C [8]: 92.2%
viability, T/C [19]: 93.2%
viability, T/C [20]: 106%
viability, T/C [21]: 99.4%
viability, T/C [22]: 125%
viability, T/C [9]: 98%
viability, T/C [10]: 89.8%
viability, T/C [23]: 103%
viability, T/C [24]: 88.9%
viability, T/C [25]: 87%
viability, T/C [26]: 106%
viability, T/C [11]: 82.5%
viability, T/C [12]: 78%
viability, T/C [27]: 81%
viability, T/C [28]: 67.5%
viability, T/C [29]: 89.4%
viability, T/C [30]: 92.4%
viability, T/C [13]: 66.5%
viability, T/C [14]: 66.2%
viability, T/C [31]: 64.8%
viability, T/C [32]: 67.7%
viability, T/C [33]: 58.7%
viability, T/C [34]: 65.9%
viability, T/C [15]: 40.1%
viability, T/C [16]: 33.2%
viability, T/C [35]: 34.5%
viability, T/C [36]: 39.8%
viability, T/C [37]: 40.3%
viability, T/C [38]: 27.6%
viability, T/C [17]: 21.8%
viability, T/C [18]: 19.9%
viability, T/C [39]: 18%
viability, T/C [40]: 20.1%
viability, T/C [41]: 19.1%
viability, T/C [42]: 13.8%

CC1(C)CCC(Nc2ncc(C(F)(F)F)c(-c3c[nH]c4c(P(C)(C)=O)c(C#N)ccc34)n2)CN1 (centres undefined) + COc1c(OCCCN2CCOCC2)ccc2c3n(c(=NC(=O)c4cnc(N)nc4)nc12)CCN3
IC50 [1]: 5540 nM
IC50 [2]: 5120 nM
IC50 [3]: 4480 nM
IC50 [4]: 3460 nM
IC50 [5]: < 31.6 nM
IC50 [6]: < 31.6 nM
viability, T/C [7]: 106%
viability, T/C [8]: 74.7%
viability, T/C [19]: 80%
viability, T/C [20]: 68.6%
viability, T/C [21]: 86.3%
viability, T/C [22]: 15%
viability, T/C [9]: 91.2%
viability, T/C [10]: 78.9%
viability, T/C [23]: 75.2%
viability, T/C [24]: 75.8%
viability, T/C [25]: 76.4%
viability, T/C [26]: 13.6%
viability, T/C [11]: 71.8%
viability, T/C [12]: 65.2%
viability, T/C [27]: 63.7%
viability, T/C [28]: 64.6%
viability, T/C [29]: 66%
viability, T/C [30]: 13%
viability, T/C [13]: 59.5%
viability, T/C [14]: 53.4%
viability, T/C [31]: 52.1%
viability, T/C [32]: 49.7%
viability, T/C [33]: 53.7%
viability, T/C [34]: 8.16%
viability, T/C [15]: 34.6%
viability, T/C [16]: 30.2%
viability, T/C [35]: 34%
viability, T/C [36]: 34%
viability, T/C [37]: 28.5%
viability, T/C [38]: 6.2%
viability, T/C [17]: 17%
viability, T/C [18]: 14.3%
viability, T/C [39]: 15.9%
viability, T/C [40]: 17%
viability, T/C [41]: 15.1%
viability, T/C [42]: 4.85%
